For one assay, the target named is T1, SMARCA2 (Homo sapiens, UniProt P51531).
T1 construct: SMARCA2-HiBiT knock-in Hela monoclonal cell (CS302366) and SMARCA4-HiBiT knock-in Hela monoclonal cell (CS3023226) were purchased from Promega; host or cells: HeLa SMARCA2-HiBiT knock-in monoclonal cells (heterozygous knock-in)
The assay can be described thus: SMARCA2 HiBiT degradation assay in HeLa cells. Particulars: 18 hours incubation, Nano-Glo HiBiT Lytic detection. It is filed as cell-based. On the procedure: (§1) Example A. SMARCA2 HiBiT and SMARCA4 HiBiT Degradation Assay
(§2) HiBiT peptide knock-in of SMARCA2 in LgBiT expressing HEK293T cells was performed by CRISPR-mediated tagging system as described Promega. The homozygous HiBiT knock-in on c-terminus SMARCA2 was confirmed by sanger sequence. SMARCA2-HiBiT knock-in Hela monoclonal cell (CS302366) and SMARCA4-HiBiT knock-in Hela monoclonal cell (CS3023226) were purchased from Promega. The heterozygous HiBiT-knock-in was confirmed by sanger sequence in both SMARCA2-HiBiT and SMARCA4-HiBiT monoclonal cells.
(§3) SMARCA2 HiBiT and SMARCA4 HiBiT degradation assay in HeLa cells
(§4) Dispense 10 ul aliquot of prepared Hela-SMARCA2-HiBiT or Hela-SMARCA4-HiBiT cells (1:1 ratio of cells:Trypan Blue (#1450013, Bio-Rad)) onto cell counting slide (#145-0011, Bio-Rad) and obtain cell density and cell viability using cell counter (TC20, Bio-Rad). Remove appropriate volume of resuspended cells from culture flask to accommodate 2500 cells/well @20 μL/well. Transfer Hela-HiBiT cells to 50 mL conical (#430290, Corning). Spin down at 1000 rpm for 5 min using tabletop centrifuge (SPINCHRON 15, Beckman). Discard supernatant and resuspend cell pellet in modified EMEM (#30-2003, ATCC) cell culture media containing 10% FBS (F2422-500ML, Sigma), and 1X Penicillin/Streptomycin (200 g/L) (30-002-CI, Corning) to a cell density of 125,000 cells/mL. Dispense 20 μLof resuspended Hela-HiBit cells per well in 384-well TC treated plate (#12-565-343, Thermo Scientific) using standard cassette (#50950372, Thermo Scientific) on Multidrop Combi (#5840310, Thermo Scientific) inside laminar flow cabinet.
(§5) Compounds were dissolved in DMSO to make 10 mM stock and 3-fold series dilutions were further conducted keeping the highest concentration 10 RM. Dispense test compounds onto plates using digital liquid dispenser (D300E, Tecan). Incubate plates in humidified tissue culture incubator @37° C. for 18 hours. Add 20 μL of prepared Nano-Glo® HiBiT Lytic detection buffer (N3050, Promega) to each well of 384-well plate using small tube cassette (#24073295, Thermo Scientific) on Multidrop Combi, incubate @ RT for 30-60 min. Read plates on microplate reader (Envision 2105, PerkinElmer) using 384 well Ultra-Sensitive luminescence mode. Raw data files and compound information reports are swept into centralized data lake and deconvoluted using automated scripts designed by TetraScience, Inc. Data analysis, curve-fitting and reporting done in Dotmatics Informatics Suite using Screening Ultra module.
(§6) In Table 1, A=DC50<0.1 RM; B=0.1 μM≤DC50<1 μM and C=DC50>1 μM. In Table 4, A=Dmax>75% and B=50%<Dmax<75% and C=Dmax<50%.

A further assay deals with T2, SMARCA4 (Homo sapiens, UniProt P51532).
T2 construct: SMARCA2-HiBiT knock-in Hela monoclonal cell (CS302366) and SMARCA4-HiBiT knock-in Hela monoclonal cell (CS3023226) were purchased from Promega; host or cells: HeLa SMARCA4-HiBiT knock-in monoclonal cells (heterozygous knock-in)
The assay can be described thus: SMARCA4 HiBiT degradation assay in HeLa cells. It is filed as cell-based. Particulars: 18 hours incubation, Nano-Glo HiBiT Lytic detection. As for the experimental part: as §1, §2, §3, §4, §5, §6

A value given as a limit tells only on which side of the number the result lay.

T2 sequence (P51532 whole entry): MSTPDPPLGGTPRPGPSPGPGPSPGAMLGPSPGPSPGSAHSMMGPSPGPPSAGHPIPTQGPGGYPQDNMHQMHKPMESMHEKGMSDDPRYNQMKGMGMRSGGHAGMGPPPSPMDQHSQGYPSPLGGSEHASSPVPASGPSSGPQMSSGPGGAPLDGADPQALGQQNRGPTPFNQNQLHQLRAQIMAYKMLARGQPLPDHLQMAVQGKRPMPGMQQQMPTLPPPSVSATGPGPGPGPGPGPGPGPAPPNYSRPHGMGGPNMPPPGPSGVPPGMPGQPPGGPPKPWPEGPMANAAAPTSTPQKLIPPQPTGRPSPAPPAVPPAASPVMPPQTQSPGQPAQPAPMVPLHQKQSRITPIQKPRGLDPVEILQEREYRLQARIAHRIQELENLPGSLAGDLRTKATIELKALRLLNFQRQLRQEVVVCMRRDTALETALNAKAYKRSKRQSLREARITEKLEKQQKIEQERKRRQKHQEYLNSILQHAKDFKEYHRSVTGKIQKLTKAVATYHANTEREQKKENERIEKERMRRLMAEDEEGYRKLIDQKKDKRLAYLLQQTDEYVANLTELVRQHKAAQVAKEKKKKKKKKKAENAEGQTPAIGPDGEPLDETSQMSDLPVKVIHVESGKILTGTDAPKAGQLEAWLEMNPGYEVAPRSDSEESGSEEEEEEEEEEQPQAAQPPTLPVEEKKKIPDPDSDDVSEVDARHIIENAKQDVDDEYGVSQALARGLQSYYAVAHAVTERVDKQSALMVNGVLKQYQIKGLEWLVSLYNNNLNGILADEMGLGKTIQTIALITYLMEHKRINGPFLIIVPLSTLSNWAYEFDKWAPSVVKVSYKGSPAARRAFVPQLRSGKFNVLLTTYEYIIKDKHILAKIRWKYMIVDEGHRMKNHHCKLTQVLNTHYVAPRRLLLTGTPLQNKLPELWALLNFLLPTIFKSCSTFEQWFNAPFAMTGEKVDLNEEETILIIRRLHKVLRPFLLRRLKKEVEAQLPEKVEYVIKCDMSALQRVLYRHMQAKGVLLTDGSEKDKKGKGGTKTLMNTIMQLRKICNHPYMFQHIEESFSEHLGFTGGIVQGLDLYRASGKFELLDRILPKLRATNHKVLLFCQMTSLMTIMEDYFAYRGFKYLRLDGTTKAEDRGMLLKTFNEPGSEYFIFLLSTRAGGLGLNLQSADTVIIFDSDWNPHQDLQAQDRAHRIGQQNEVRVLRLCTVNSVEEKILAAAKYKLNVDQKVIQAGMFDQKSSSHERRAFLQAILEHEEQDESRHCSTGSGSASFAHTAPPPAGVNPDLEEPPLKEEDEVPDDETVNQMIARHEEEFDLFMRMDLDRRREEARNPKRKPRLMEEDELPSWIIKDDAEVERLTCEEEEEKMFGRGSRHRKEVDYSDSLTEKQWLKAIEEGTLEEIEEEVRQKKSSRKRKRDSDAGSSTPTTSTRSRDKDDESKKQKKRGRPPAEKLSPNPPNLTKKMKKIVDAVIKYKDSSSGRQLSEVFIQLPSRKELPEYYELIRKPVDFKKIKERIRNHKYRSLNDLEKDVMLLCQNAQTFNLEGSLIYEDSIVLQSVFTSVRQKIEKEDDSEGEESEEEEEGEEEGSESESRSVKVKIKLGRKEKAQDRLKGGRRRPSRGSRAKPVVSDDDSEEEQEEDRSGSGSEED
T1 sequence (P51531 whole entry): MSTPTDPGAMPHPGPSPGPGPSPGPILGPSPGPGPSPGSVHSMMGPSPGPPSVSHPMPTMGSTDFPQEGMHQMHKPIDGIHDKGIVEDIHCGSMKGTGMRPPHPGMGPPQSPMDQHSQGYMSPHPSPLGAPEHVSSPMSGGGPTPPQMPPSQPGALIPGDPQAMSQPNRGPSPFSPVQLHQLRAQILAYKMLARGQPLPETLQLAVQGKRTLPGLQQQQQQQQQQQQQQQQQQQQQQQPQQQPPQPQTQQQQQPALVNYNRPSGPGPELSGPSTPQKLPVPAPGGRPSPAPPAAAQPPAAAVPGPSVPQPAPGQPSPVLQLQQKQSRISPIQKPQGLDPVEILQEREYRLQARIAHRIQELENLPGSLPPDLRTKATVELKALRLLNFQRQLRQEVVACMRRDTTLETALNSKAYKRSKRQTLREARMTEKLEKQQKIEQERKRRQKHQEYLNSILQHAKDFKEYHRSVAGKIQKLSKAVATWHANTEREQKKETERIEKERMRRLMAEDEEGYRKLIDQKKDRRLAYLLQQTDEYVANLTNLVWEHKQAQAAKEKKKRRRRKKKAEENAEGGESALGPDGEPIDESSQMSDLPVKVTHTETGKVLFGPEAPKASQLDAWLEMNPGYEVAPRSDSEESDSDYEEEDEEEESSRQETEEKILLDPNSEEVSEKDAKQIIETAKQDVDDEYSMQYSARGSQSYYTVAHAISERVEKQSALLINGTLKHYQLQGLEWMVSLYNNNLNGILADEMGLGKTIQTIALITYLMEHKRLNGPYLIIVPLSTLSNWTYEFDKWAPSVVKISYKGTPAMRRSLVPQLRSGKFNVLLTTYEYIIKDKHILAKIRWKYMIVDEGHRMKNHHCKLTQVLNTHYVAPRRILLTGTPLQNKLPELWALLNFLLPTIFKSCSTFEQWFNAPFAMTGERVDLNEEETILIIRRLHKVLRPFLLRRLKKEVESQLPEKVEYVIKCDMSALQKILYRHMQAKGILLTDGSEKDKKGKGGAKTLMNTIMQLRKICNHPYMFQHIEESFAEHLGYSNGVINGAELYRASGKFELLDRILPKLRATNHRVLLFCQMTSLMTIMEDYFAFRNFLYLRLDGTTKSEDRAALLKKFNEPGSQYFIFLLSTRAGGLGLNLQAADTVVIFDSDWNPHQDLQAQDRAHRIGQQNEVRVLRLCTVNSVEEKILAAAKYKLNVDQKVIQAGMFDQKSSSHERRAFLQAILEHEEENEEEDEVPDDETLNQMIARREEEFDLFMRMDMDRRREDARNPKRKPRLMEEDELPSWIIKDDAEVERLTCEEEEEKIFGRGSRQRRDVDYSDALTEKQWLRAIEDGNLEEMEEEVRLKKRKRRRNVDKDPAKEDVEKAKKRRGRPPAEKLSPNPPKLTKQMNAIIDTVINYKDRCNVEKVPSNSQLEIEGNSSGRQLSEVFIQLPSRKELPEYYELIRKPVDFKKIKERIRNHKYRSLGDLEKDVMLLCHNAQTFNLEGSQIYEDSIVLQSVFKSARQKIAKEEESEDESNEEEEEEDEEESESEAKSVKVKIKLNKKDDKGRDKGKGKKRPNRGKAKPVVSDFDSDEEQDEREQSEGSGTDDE

`CC[C@]12CNc3nnc(-c4ccccc4O)cc3N1C[C@H](Oc1ccc(CN3CCN(c4ccc(N5CCC(=O)NC5=O)cc4)CC3)cn1)C2` [Example 9, 1-(4-(4-((6-(((6aS,8R)-6a-ethyl-2-(2-hydroxyphenyl)-5,6,6a,7,8,9-hexahydro-pyrrolo[1′,2′:4,5]pyrazino[2,3-c]pyridazin-8-yl)oxy)pyridin-3-yl)methyl)piperazin-1-yl)phenyl)dihydropyrimidine-2,4(1H,3H)-dione]: the DC50 is 100 to 1000 nM at SMARCA2 and under 100 nM at SMARCA4. Also, the Dmax at SMARCA2 was under 50%; at SMARCA4, 50 to 75%.

Turning to `CC[C@@]12CNc3nnc(-c4ccccc4O)cc3N1C[C@H](Oc1ccc(CN3CCC(c4ccc(C5CCC(=O)NC5=O)cc4)CC3)cn1)C2` (stereo partly drawn) [Example 16, 3-(4-(1-((6-(((6aR,8R)-6a-ethyl-2-(2-hydroxyphenyl)-5,6,6a,7,8,9-hexahydro-pyrrolo[1′,2′:4,5]pyrazino[2,3-c]pyridazin-8-yl)oxy)pyridin-3-yl)methyl)piperidin-4-yl)phenyl)piperidine-2,6-dione], the DC50 at SMARCA2 and on SMARCA4 was under 100 nM throughout. For the same molecule, the Dmax at SMARCA2 and at SMARCA4 was over 75% in each case.

On SMARCA2, `CC[C@]12CNc3nnc(-c4ccccc4O)cc3N1C[C@H](Oc1ccc(CN3CCN(c4ccc(C5CCC(=O)NC5=O)cc4)CC3)cn1)C2` (stereo partly drawn) [Example 14, 3-(4-(4-((6-(((6aS,8R)-6a-ethyl-2-(2-hydroxyphenyl)-5,6,6a,7,8,9-hexahydro-pyrrolo[1′,2′:4,5]pyrazino[2,3-c]pyridazin-8-yl)oxy)pyridin-3-yl)methyl)piperazin-1-yl)phenyl)piperidine-2,6-dione] yielded a DC50 of under 100 nM and a Dmax of over 75%. At SMARCA4, the DC50 is under 100 nM and the Dmax was over 75%.

For the molecule `C[C@@H]1CN(CC2CCN(c3ccc4ncn(C5CCC(=O)NC5=O)c(=O)c4c3)CC2)C[C@H](C)N1C(=O)N1CCN2c3cc(-c4ccccc4O)nnc3NC[C@H]2C1` (stereo partly drawn) [Example 2, 3-(6-(4-(((3R,5S)-4-((S)-2-(2-hydroxyphenyl)-6,6a,7,8,9,10-hexahydro-5H-pyrazino[1′,2′:4,5]pyrazino[2,3-c]pyridazine-8-carbonyl)-3,5-dimethylpiperazin-1-yl)methyl)piperidin-1-yl)-4-oxoquinazolin-3(4H)-yl)piperidine-2,6-dione], at SMARCA2, the DC50 is under 100 nM and the Dmax was in the range of 50 to 75%. At SMARCA4, this molecule gave a DC50 of 100 to 1000 nM and a Dmax of 50 to 75%.

Take `C[C@@H]1CN(CC2CCN(c3ccc4cnn(C5CCC(=O)NC5=O)c4c3)CC2)C[C@H](C)N1C(=O)N1CCN2c3cc(-c4ccccc4O)nnc3NC[C@H]2C1` (stereo partly drawn) [Example 5, 3-(6-(4-(((3R,5S)-4-((S)-2-(2-hydroxyphenyl)-6,6a,7,8,9,10-hexahydro-5H-pyrazino[1′,2′:4,5]pyrazino[2,3-c]pyridazine-8-carbonyl)-3,5-dimethylpiperazin-1-yl)methyl)piperidin-1-yl)-1H-indazol-1-yl)piperidine-2,6-dione]: the DC50 at SMARCA2 was 100 to 1000 nM; on SMARCA4 it was over 1000 nM. Also, the Dmax at SMARCA2 and at SMARCA4 was under 50% each time.

Regarding `CC[C@]12CNc3nnc(-c4ccccc4O)cc3N1C[C@H](Oc1ccc(CN3CCN(c4ccc(C(=O)NC5CCC(=O)NC5=O)c(F)c4)CC3)cn1)C2` (stereo partly drawn) [Example 13, N-(2,6-dioxopiperidin-3-yl)-4-(4-((6-(((6aS,8R)-6a-ethyl-2-(2-hydroxyphenyl)-5,6,6a,7,8,9-hexahydropyrrolo[1′,2′:4,5]pyrazino[2,3-c]pyridazin-8-yl)oxy)pyridin-3-yl)methyl)piperazin-1-yl)-2-fluorobenzamide], at SMARCA2, the DC50 is 100 to 1000 nM and the Dmax was under 50%. At SMARCA4, this molecule registered a DC50 of over 1000 nM and a Dmax of under 50%.

At SMARCA2, `CC[C@]12CNc3nnc(-c4ccccc4O)cc3N1C[C@H](Oc1ccc(CN3CCN(c4ccc(NC5CCC(=O)NC5=O)cc4)CC3)cn1)C2` (stereo partly drawn) [Example 10, 3-((4-(4-((6-(((6aS,8R)-6a-ethyl-2-(2-hydroxyphenyl)-5,6,6a,7,8,9-hexahydro-pyrrolo[1′,2′:4,5]pyrazino[2,3-c]pyridazin-8-yl)oxy)pyridin-3-yl)methyl)piperazin-1-yl)phenyl)amino)piperidine-2,6-dione] came in with a half-maximal degradation concentration (DC50) of under 100 nM and a Dmax of over 75%. Besides, at SMARCA4, the DC50 was under 100 nM and the Dmax was over 75%.

On to `C[C@@H]1CN(CC2CCN(c3ccnc(C(=O)NC4CCC(=O)NC4=O)c3)CC2)C[C@H](C)N1C(=O)N1CCN2c3cc(-c4ccccc4O)nnc3NC[C@H]2C1` (stereo partly drawn) [Example 7, N-(2,6-dioxopiperidin-3-yl)-4-[4-[[(3R,5S)-4-[(1OS)-4-(2-hydroxyphenyl) 1,5,6,8,12-pentazatricyclo[8.4.0.02,7]tetradeca-2,4,6-triene-12-carbonyl]-3,5-dimethylpiperazin-1-yl]methyl]piperidin-1-yl]pyridine-2-carboxamide], for which the DC50 on SMARCA2 is under 100 nM; on SMARCA4 it was over 1000 nM. Further, the Dmax on SMARCA2 fell in the range of 50 to 75%.

`O=C1CCC(n2ncc3ccc(N4CCC(CN5C[C@@H]6[C@H](C5)[C@H]6CN5CCN6c7cc(-c8ccccc8O)nnc7NC[C@H]6C5)CC4)cc32)C(=O)N1` (stereo partly drawn) [Example 6, 3-(6-(4-(((1R,5S,6r)-6-(((S)-2-(2-hydroxyphenyl)-5,6,6a,7,9,10-hexahydro-8H-pyrazino[1′,2′:4,5]pyrazino[2,3-c]pyridazin-8-yl)methyl)-3-azabicyclo[3.1.0]hexan-3-yl)methyl)piperidin-1-yl)-1H-indazol-1-yl)piperidine-2,6-dione]: at SMARCA2, the DC50 fell in the range of 100 to 1000 nM and the Dmax is under 50%. Further, on SMARCA4, the DC50 is over 1000 nM and the Dmax is under 50%.

On SMARCA2, `C[C@@H]1CN(CC2CCN(c3ccc4c(=O)n(C5CCC(=O)NC5=O)ncc4c3)CC2)C[C@H](C)N1C(=O)N1CCN2c3cc(-c4ccccc4O)nnc3NC[C@H]2C1` (stereo partly drawn) [Example 3, 3-(6-(4-(((3R,5S)-4-((S)-2-(2-hydroxyphenyl)-6,6a,7,8,9,10-hexahydro-5H-pyrazino[1′,2′:4,5]pyrazino[2,3-c]pyridazine-8-carbonyl)-3,5-dimethylpiperazin-1-yl)methyl)piperidin-1-yl)-1-oxophthalazin-2(1H)-yl)piperidine-2,6-dione] showed a DC50 of under 100 nM and a Dmax of 50 to 75%. At SMARCA4, this molecule returned a DC50 of 100 to 1000 nM and a Dmax of under 50%.

At SMARCA2, `CC[C@]12CNc3nnc(-c4ccccc4O)cc3N1C[C@H](Oc1ccc(CN3CCN(c4ccc(C(=O)NC5CCC(=O)NC5=O)cc4)CC3)cn1)C2` (stereo partly drawn) [Example 12, N-(2,6-dioxopiperidin-3-yl)-4-(4-((6-(((6aS,8R)-6a-ethyl-2-(2-hydroxyphenyl)-5,6,6a,7,8,9-hexahydropyrrolo[1′,2′:4,5]pyrazino[2,3-c]pyridazin-8-yl)oxy)pyridin-3-yl)methyl)piperazin-1-yl)benzamide] yielded a DC50 of under 100 nM and a Dmax of 50 to 75%. Moreover, at SMARCA4, the DC50 was in the range of 100 to 1000 nM and the Dmax is under 50%.

On SMARCA2, `CC[C@]12CNc3nnc(-c4ccccc4O)cc3N1C[C@H](Oc1ccc(CN3CCN(c4ccc(NC5CCC(=O)NC5=O)cc4F)CC3)cn1)C2` (stereo partly drawn) [Example 11, 3-((4-(4-((6-(((6aS,8R)-6a-ethyl-2-(2-hydroxyphenyl)-5,6,6a,7,8,9-hexahydro-pyrrolo[1′,2′:4,5]pyrazino[2,3-c]pyridazin-8-yl)oxy)pyridin-3-yl)methyl)piperazin-1-yl)-3-fluorophenyl)amino)piperidine-2,6-dione] had a DC50 of under 100 nM and a Dmax of over 75%. Further, on SMARCA4, the DC50 is under 100 nM and the Dmax was over 75%.
